From patent US20140045823A1 (Neurocrine Biosciences, Inc., priority 2012, published 2014)

These compounds were tested against T1, human GPR119 (Homo sapiens, UniProt Q8TDV5) (assay: AlphaScreen cAMP assay in MIN6 cells stably transfected with human GPR119). Conditions: Min-6/hGPR119 cells, 45 min at room temperature.
T1 construct: expression vector for human GPR119 cDNA (Acc. No. NP_848566); expressed in transfected cells; Min-6/hGPR119
T1 sequence (Q8TDV5 1-335): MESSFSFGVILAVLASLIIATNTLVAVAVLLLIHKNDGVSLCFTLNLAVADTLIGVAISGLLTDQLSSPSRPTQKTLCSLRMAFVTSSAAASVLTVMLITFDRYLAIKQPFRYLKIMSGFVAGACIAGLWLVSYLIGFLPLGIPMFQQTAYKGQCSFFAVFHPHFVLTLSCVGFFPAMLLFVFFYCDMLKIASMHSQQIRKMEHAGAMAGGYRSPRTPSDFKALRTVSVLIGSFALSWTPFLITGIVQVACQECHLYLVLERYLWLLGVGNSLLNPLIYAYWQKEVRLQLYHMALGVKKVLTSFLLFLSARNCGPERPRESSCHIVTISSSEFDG
Assay type: cell-based
How it was run: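 cAMP accumulation quantified by AlphaScreen after 45 min compound stimulation at about 20 °C. Stimulation buffer: pH 7.4 HEPES saline with 0.5 mM IBMX, 0.1% BSA, 1% DMSO final. Cells: MIN6 stably transfected with human GPR119, 10000/well, cultured 24 h beforehand.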
Compound CC(C)(C)OC(=O)N1CCC(N(C(=O)c2cnc(-c3ccc(C(=O)N4CCCC(CO)C4)c(F)c3)nc2)C2CC2)CC1 (stereo not drawn) [Example 129, 4-(Cyclopropyl-{2-[3-fluoro-4-(3-hydroxymethyl-piperidine-1-carbonyl)-phenyl]-pyrimidine-5-carbonyl}-amino)-piperidine-1-carboxylic acid tert-butyl ester] has an EC50 of 548 nM.
Compound COCC(C)NC(=O)c1ccc(-c2ncc(C(=O)N(C3CC3)C3CCN(C(=O)OC(C)(C)C)CC3)cn2)cc1F (stereo not drawn) [Example 130, 4-(Cyclopropyl-{2-[3-fluoro-4-(2-methoxy-1-methyl-ethylcarbamoyl)-phenyl]-pyrimidine-5-carbonyl}-amino)-piperidine-1-carboxylic acid tert-butyl ester] has an EC50 of 193 nM.
In the case of CC(C)(C)OC(=O)N1CCC(N(C(=O)c2cnc(-c3ccc(C(=O)NCC4CCOC4)c(F)c3)nc2)C2CC2)CC1 (stereo not drawn) [Example 131, 4-[Cyclopropyl-(2-{3-fluoro-4-[(tetrahydro-furan-3-ylmethyl)-carbamoyl]-phenyl}-pyrimidine-5-carbonyl)-amino]-piperidine-1-carboxylic acid tert-butyl ester], the EC50 is reported as 175 nM.
With CN(CC#N)C(=O)c1ccc(-c2ncc(C(=O)N(C3CC3)C3CCN(C(=O)OC(C)(C)C)CC3)cn2)cc1F [Example 132, 4-({2-[4-(Cyanomethyl-methyl-carbamoyl)-3-fluoro-phenyl]-pyrimidine-5-carbonyl}-cyclopropyl-amino)-piperidine-1-carboxylic acid tert-butyl ester] the EC50 was 98 nM.
With COC1CCN(C(=O)c2ccc(-c3ncc(C(=O)N(C4CC4)C4CCN(C(=O)OC(C)(C)C)CC4)cn3)c(F)c2)CC1 [Example 133, 4-(Cyclopropyl-{2-[2-fluoro-4-(4-methoxy-piperidine-1-carbonyl)-phenyl]-pyrimidine-5-carbonyl}-amino)-piperidine-1-carboxylic acid tert-butyl ester] the EC50 was 516 nM.
Work on COC[C@H]1CCCN1C(=O)c1ccc(-c2ncc(C(=O)N(C3CC3)C3CCN(C(=O)OC(C)(C)C)CC3)cn2)c(F)c1 [Example 134, 4-(Cyclopropyl-{2-[2-fluoro-4-(2-methoxymethyl-pyrrolidine-1-carbonyl)-phenyl]-pyrimidine-5-carbonyl}-amino)-piperidine-1-carboxylic acid tert-butyl ester] yielded an EC50 of 561 nM.
Work on COCC(C)N(C)C(=O)c1ccc(-c2ncc(C(=O)N(C3CC3)C3CCN(C(=O)OC(C)(C)C)CC3)cn2)c(F)c1 (stereo not drawn) [Example 135, 4-[Cyclopropyl-(2-{2-fluoro-4-[(2-methoxy-1-methyl-ethyl)-methyl-carbamoyl]-phenyl}-pyrimidine-5-carbonyl)-amino]-piperidine-1-carboxylic acid tert-butyl ester] yielded an EC50 of 914 nM.
Cn1ccc(CNC(=O)c2ccc(-c3ncc(C(=O)N(C4CC4)C4CCN(C(=O)OC(C)(C)C)CC4)cn3)cc2F)n1 [Example 136, 4-[Cyclopropyl-(2-{3-fluoro-4-[(1-methyl-1H-pyrazol-3-ylmethyl)-carbamoyl]-phenyl}-pyrimidine-5-carbonyl)-amino]-piperidine-1-carboxylic acid tert-butyl ester] gave an EC50 of 194 nM.
COC1CN(C(=O)c2ccc(-c3ncc(C(=O)N(C4CC4)C4CCN(C(=O)OC(C)(C)C)CC4)cn3)cc2F)C1 [Example 137, 4-(Cyclopropyl-{2-[3-fluoro-4-(3-methoxy-azetidine-1-carbonyl)-phenyl]-pyrimidine-5-carbonyl}-amino)-piperidine-1-carboxylic acid tert-butyl ester] was tested, and the EC50 was 264 nM.
CN(CCOCC1CC1)C(=O)c1ccc(-c2ncc(C(=O)N(C3CC3)C3CCN(C(=O)OC(C)(C)C)CC3)cn2)c(F)c1 [Example 138, 4-[Cyclopropyl-(2-{4-[(2-cyclopropylmethoxy-ethyl)-methyl-carbamoyl]-2-fluoro-phenyl}-pyrimidine-5-carbonyl)-amino]-piperidine-1-carboxyli acid tert-butyl ester] gave an EC50 of 346 nM.
Compound CN(Cc1ccncc1)C(=O)c1ccc(-c2ncc(C(=O)N(C3CC3)C3CCN(C(=O)OC(C)(C)C)CC3)cn2)cc1F [Example 139, 4-(Cyclopropyl-{2-[3-fluoro-4-(methyl-pyridin-4-ylmethyl-carbamoyl)-phenyl]-pyrimidine-5-carbonyl}-amino)-piperidine-1-carboxylic acid tert-butyl ester] has an EC50 of 263 nM.
For CN(CC#N)C(=O)c1ccc(-c2ncc(C(=O)N(C3CC3)C3CCN(C(=O)OC(C)(C)C)CC3)cn2)c(F)c1 [Example 140, 4-({2-[4-(Cyanomethyl-methyl-carbamoyl)-2-fluoro-phenyl]-pyrimidine-5-carbonyl}-cyclopropyl-amino)-piperidine-1-carboxylic acid tert-butyl ester], the EC50 was 441 nM.
CC(C)(C)OC(=O)N1CCC(N(C(=O)c2cnc(-c3ccc(C(=O)N4CCC(O)(C(F)(F)F)CC4)c(F)c3)nc2)C2CC2)CC1 [Example 141, 4-(Cyclopropyl-{2-[3-fluoro-4-(4-hydroxy-4-trifluoromethyl-piperidine-1-carbonyl)-phenyl]-pyrimidine-5-carbonyl}-amino)-piperidine-1-carboxylic acid tert-butyl ester] showed an EC50 of 231 nM.
CC(C)(C)OC(=O)N1CCC(N(C(=O)c2cnc(-c3ccc(C(=O)NCCOC(F)(F)F)c(F)c3)nc2)C2CC2)CC1 [Example 142, 4-(Cyclopropyl-{2-[3-fluoro-4-(2-trifluoromethoxy-ethylcarbamoyl)-phenyl]-pyrimidine-5-carbonyl}-amino)-piperidine-1-carboxylic acid tert-butyl ester] was tested, and the EC50 was 105 nM.
Work on COc1ccc(NC(=O)c2ccc(-c3ncc(C(=O)N(C4CC4)C4CCN(C(=O)OC(C)(C)C)CC4)cn3)c(F)c2)c(OC)c1 [Example 143, 4-(Cyclopropyl-{2-[4-(2,4-dimethoxy-phenylcarbamoyl)-2-fluoro-phenyl]-pyrimidine-5-carbonyl}-amino)-piperidine-1-carboxylic acid tert-butyl ester] yielded an EC50 of 168 nM.
In the case of CC(C)(C)OC(=O)N1CCC(N(C(=O)c2cnc(-c3ccc(C(=O)NCC4(C)CCCO4)c(F)c3)nc2)C2CC2)CC1 (stereo not drawn) [Example 144, 4-[Cyclopropyl-(2-{3-fluoro-4-[(2-methyl-tetrahydro-furan-2-ylmethyl)-carbamoyl]-phenyl}-pyrimidine-5-carbonyl)-amino]-piperidine-1-carboxylic acid tert-butyl ester], the EC50 is reported as 230 nM.
CC(C)(C)OC(=O)N1CCC(N(C(=O)c2cnc(-c3ccc(C(=O)NC4CCOCC4)cc3F)nc2)C2CC2)CC1 [Example 145, 4-(Cyclopropyl-{2-[2-fluoro-4-(tetrahydro-pyran-4-ylcarbamoyl)-phenyl]-pyrimidine-5-carbonyl}-amino)-piperidine-1-carboxylic acid tert-buyl ester] gave an EC50 of 1000 nM.
Compound CC(C)(C)OC(=O)N1CCC(N(C(=O)c2cnc(-c3ccc(C(=O)NCC4CCCO4)c(F)c3)nc2)C2CC2)CC1 (stereo not drawn) [Example 146, 4-[Cyclopropyl-(2-{3-fluoro-4-[(tetrahydro-furan-2-ylmethyl)-carbamoyl]-phenyl}-pyrimidine-5-carbonyl)-amino]-piperidine-1-carboxylic acid tert-butyl ester] has an EC50 of 64 nM.
